Results: paper PMC5730604
Where two headings read alike, the source gives them in different places. Positions of bridges follow the written chain, without caps; N, C: chain ends. Non-standard residues stand in square brackets, D forms with d. Residues, ends and D or L forms follow the SMILES beside them. Chains are numbered I, II in the order given. *: point of attachment. PEG28 = NCCOCCOCCOCCOCCOCCOCCOCCOCCOCCOCCOCCOCCOCCOCCOCCOCCOCCOCCOCCOCCOCCOCCOCCOCCOCCOCCOCCOCCC(=O)O; Tyr(3-NO2) = N[C@@H](Cc1ccc(O)c([N+](=O)[O-])c1)C(=O)O; Biotin = O=C1N[C@H]2[C@H](CS[C@H]2CCCCC(=O)*)N1; Hyp = O=C(O)[C@@H]1C[C@@H](O)CN1; For = O=C*

Tests used:
MDA-MB-231 = assay: Flow cytometry binding to cells; set-up: key: ++: strong binding; +: m edium binding; +/-: weak or heterogeneous binding; -: no binding; details: Table S1, human, 1 µM biotinylated peptide, 2 mM MnCl2, on ice
E0771 = details: Table S1; mouse; flow cytometry, 1 µM biotinylated peptide, 2 mM MnCl2, on ice
Protocol: (§26) from DSMZ or LGC and cultured according to the distributors’ guidelines. Human, murine or
(§27) guinea pig leukocytes or macrophages were isolated and cultured as described below. Cells
(§28) growing in monolayers were detached using trypsin/EDTA and then re- suspended in complete
(§29) culture medium. After washing with washing buffer (W B: 0.9% NaCl, 10 mM Hepes, pH 7.3) at
(§30) 4°C, cells were re-suspended at 2x10^6 cells/ml in peptide blocking b uf f er ( PBB: 0.9% NaCl,
(§31) 10 m M H epes, pH 7.3, 5 m M KCl , 3% BSA, 5% FCS) and incubated for 10 minutes on ice
(§32) concentration in PBB were added to equal volumes of aliquots of 1x10^5 cells, and were
(§33) incubated f or 30 min on ice with repeated shaking to keep the cells in suspension. Except
(§34) three times wit h 1 ml W B, followed by incubation with streptavidin labeled wit h PerCP-Cy5.5
(§35) (BD Biosciences, 200 µg/ml; diluted 1:400 in PBB) for 15 min on ice. After one additional
(§36) wa s h ing step with phosphate- buffered saline (PBS) at 4°C, samples were re-suspended in
(§37) PBS with Hoechst 33258 solution (0.5 µg/ml) and analyzed using a F ACS Canto system ( at
(§38) least 1x10^4 cells per sample were counted). Evaluations were performed using FloJo software. […]
(§39) indicated cases the geometrical mean f luorescence was recorded. […]
(§40) which half-maximum binding intensity was reached (KD) was calculated using Origin 9.0 […]

NIH-3T3 = details: mouse, flow cytometry, 1 µM biotinylated peptide
Protocol: as §26, §27, §28, §29, §30, §31, §32, §33, §34, §35, §36, §37
least 1x10^4 cells per sample were counted). Evaluations were performed using FloJo software.
W hole cells were gated i n a FSC/SSC plot and live gating was based on Hoechst exclusion.
After gating out debris, aggregates and dead cells, overlay histograms in the PerCP-Cy5.5
indicated cases the geometrical mean f luorescence was recorded.
For determining binding affinity, a rang e of concentrations of the biotinylated compound was
tested and the f luorescent signals were plotted against concentration. The concentration at
which half-maximum binding intensity was reached (KD) was calculated using Origin 9.0
sof tware and a “one site specif ic binding” fit (y =(Bmax* x) /(KD+x) ).
f luorescent signals were plotted against competitor concentration. The concentration at which

primary lymphocytes = assay: Flow cytometry binding to cells; details: 1 µM biotinylated peptide; further: key: ++: Strong binding; +: medium binding; +/−: weak binding; −: no binding
primary leukocytes = assay: Flow cytometry binding to cells; details: 1 µM biotinylated peptide; further: key: ++: Strong binding; +: medium binding; +/−: weak binding; −: no binding
L-929 = details: Table S1; mouse; flow cytometry, 1 µM biotinylated peptide, 2 mM MnCl2, on ice
Protocol: as §26, §27, §28, §29, §30, §31, §32, §33, §34, §35, §36, §37, §38, §39, §40

GPC-16 = assay: Flow cytometry binding to cells; set-up: key to the marks not given beside the values; details: 1 µM biotinylated peptide
primary monocytes = assay: Flow cytometry binding to cells; details: 1 µM biotinylated peptide; further: key: ++: Strong binding; +: medium binding; +/−: weak binding; −: no binding
HeLa = system: HeLa; set-up: key to the marks not given beside the values; details: Table S1; human; flow cytometry, 1 µM biotinylated peptide, 2 mM MnCl2, on ice
K562 = assay: Flow cytometry binding to cells; set-up: species or system Human; details: 1 µM biotinylated peptide; further: key: ++: Strong binding; +: medium binding; +/−: weak binding; −: no binding
[1] = system: primary macrophages 7 days; assay: Flow cytometry binding to cells; details: 1 µM biotinylated peptide; on binding to macrophages 7 days: key: ++: strong binding; +: m edium binding; +/-: weak or heterogeneous binding; -: no binding
U-87MG = assay: Flow cytometry binding to cells; set-up: key: ++: strong binding; +: m edium binding; +/-: weak or heterogeneous binding; -: no binding; details: Table S1, human, 1 µM biotinylated peptide, 2 mM MnCl2, on ice
HUVEC = assay: Flow cytometry binding to cells; set-up: species or system Human; details: 1 µM biotinylated peptide
PC-3 or A431 cells = details: 37 °C, streptavidin staining, flow cytometry
Protocol: washed as described above and then re-suspended in Eagle’s minimum essential medium
incubated on ice or at 37°C. At different time points after washing 50 µl samples were taken
and added to 50 µl of Streptavidin- PerCP-Cy5.5 (diluted 1:200), incubated on ice f or 15 min,
washed with PBS, and analyzed in PBS with Hoechst solution. Fluorescent signals were
plotted against time between washing and streptavidin addition.
over time after incubation on ice and at 37°C.
labeled streptavidin as described previously f or flow cytometry assays.

primary granulocytes = assay: Flow cytometry binding to cells; details: 1 µM biotinylated peptide; further: key: ++: Strong binding; +: medium binding; +/−: weak binding; −: no binding
primary macrophages 7d = assay: Flow cytometry binding to cells; details: 1 µM biotinylated peptide; further: key: ++: Strong binding; +: medium binding; +/−: weak binding; −: no binding
4T1 = details: Table S1; mouse; flow cytometry, 1 µM biotinylated peptide, 2 mM MnCl2, on ice
Protocol: as §26, §27, §28, §29, §30, §31, §32, §33, §34, §35, §36, §37, §38, §39, §40

H MC-1 = assay: Flow cytometry binding to cells; details: Table S1, human, 1 µM biotinylated peptide, 2 mM MnCl2, on ice; further: key: ++: Strong binding; +: medium binding; +/−: weak binding; −: no binding
HT-29 = assay: Flow cytometry binding to cells; set-up: key: ++: strong binding; +: m edium binding; +/-: weak or heterogeneous binding; -: no binding; details: Table S1, human, 1 µM biotinylated peptide, 2 mM MnCl2, on ice
PC-3 = assay: Flow cytometry binding to cells; set-up: species or system Human; key to the marks not given beside the values; details: 1 µM biotinylated peptide
A431 = assay: Flow cytometry binding to cells; set-up: species or system Human; key to the marks not given beside the values; details: 1 µM biotinylated peptide
integrin α3 = target: T1, integrin α3 (Homo sapiens, UniProt P26006); assay: Displacement of anti-CD49c-PE conjugate (flow cytometry); format: binding; details: increasing peptide concentrations, 2 mM MnCl2, 30 min on ice, flow cytometry (PE channel)
T1 construct: endogenous in cells

mice = assay: Immune activation assays (Figure S2C,D); format: cell-based, Mouse; details: compared with human cells
Protocol: (§1) Human leukocytes were re-suspended in Hank ’s Buffered Saline Solution (HBSS, without
(§2) Ca2+, Mg 2+) with 10 mM Hepes pH 7.3 and 0.3% BSA at 10^7 cells/ml. Cells were pre-warmed
(§3) at 37°C for 20 min. After adding the effector dilutions in the lower compartment of 24-well plates
(§4) (800 µl/well), a Millicell culture plate insert with 5 µm pore size was placed in each well, f ollowed
(§5) by immediate addition of 200 µl (2 million) leuk ocytes. In one well, the cells were added without
(§6) a f ilter insert, allowing determination of the input number. The plate was incubated at 37°C and
(§7) 5% CO2 f or 45 min. 5 mM EDTA solution was added and the plate was incubated f or another
(§8) 10 min at 37 °C. […]
(§9) determined using a Neubauer chamber, or the numbers of transmigrated monocytes ,
(§10) granulocytes and lymphocytes were determined by flow cytometry (discriminating c e ll […]
(§11) 37°C and 5% CO2. Macrophages on the bottom side of the f ilter were counted. […]
(§12) J software, means and standard deviations were calculated and presented as absolute […]
(§13) Activation of the oxidative burst (phagocyte NADPH oxidase) was measured using a […]
(§14) 150 µl were stored at - 80 °C until cytokine levels were measured with commercially available
(§15) ELISA kits (Ready-set-go system, eBiosciences). […]
(§16) were measured and calculated based on the standards included wit hin the ELISA kits and as […]
(§17) analysis. Measured cytok ine levels were normalized to 1 (the average of the two unstimulated

human leukocytes = assay: Chemotaxis assay; format: cell-based; details: compared with the non-PEGylated effector
Protocol: as §1, §2, §3, §4, §5, §6, §7, §8
Phorbol
(§18) 12- m yr ist oyl 13-acetate (P MA , 3 µg/ml) was used as a positive control. All samples were f ixed
(§19) in 1% formaldehyde Hoechst 33258 solution (0.5 µg/ml) was added and cells were k ept on ice
(§20) until analysis using a FACS Canto system. After gating for live cells and granulocytes (human
(§21) cells) or non- lymphocytes (murine cells) in the FSC/SSC plot, rhodamine-positive cells were
(§22) identif ied in a PE/SSC plot, using an unstimulated sample as a reference.
(§23) Human monocytes, after an overnight pre- culture, were incubated f or 6 more hours in 1 ml
(§24) RPMI+10% FCS containing 100 nM F2- 2PEG, 0.1 ng/ml LPS (Sigma- Aldrich), or no stimulus.
(§25) All experiments were performed in duplicates. […]

guinea pigs = assay: Immune activation assays (Figure S2C,D); format: cell-based, Guinea pig; details: compared with human cells
Protocol: as §1, §2, §3, §4, §5, §6, §7, §8, §9, §10, §11, §12, §13, §14, §15, §16, §17

human granulocytes = assay: Oxidative burst (dihydro-rhodamine oxidation) assay; format: cell-based; details: compared with the non-PEGylated effector
Protocol: Activation of the oxidative burst (phagocyte NADPH oxidase) was measured using a
dihydrorhodamine (DHR, Molecular Probes) oxidation assay, based on a method described
previously1. In brief, 200 µl samples of human, murine or guinea pig leukocytes (1.25x 106
cells/ml in HHBS + 10 mM Hepes, pH 7.3, 0.3% BSA and 5 mM EDTA) were loaded with DHR
and catalase (Sigma-Aldrich) and cytochalasin B (Sigma-Aldrich) were added. Cells were pre-
incubated at 37°C for 10 min followed by the addition of 50 µl of effector dilutions (5x the
intended concentration) in the same buffer and another 15 min of incubation at 37°C. Phorbol
as §18, §19, §20, §21, §22, §23, §24, §25

[2] = 2 mM MnCl2, 30 min on ice, streptavidin-PerCP-Cy5.5
[3] = Table S1, human, 2 mM MnCl2, on ice
[4] = human, 2 mM MnCl2, 30 min on ice, streptavidin-PerCP-Cy5.5
[5] = Table S1, mouse, 2 mM MnCl2, on ice
[6] = mouse, 2 mM MnCl2, 30 min on ice, streptavidin-PerCP-Cy5.5

T1 sequence (P26006 33-872 limits assumed): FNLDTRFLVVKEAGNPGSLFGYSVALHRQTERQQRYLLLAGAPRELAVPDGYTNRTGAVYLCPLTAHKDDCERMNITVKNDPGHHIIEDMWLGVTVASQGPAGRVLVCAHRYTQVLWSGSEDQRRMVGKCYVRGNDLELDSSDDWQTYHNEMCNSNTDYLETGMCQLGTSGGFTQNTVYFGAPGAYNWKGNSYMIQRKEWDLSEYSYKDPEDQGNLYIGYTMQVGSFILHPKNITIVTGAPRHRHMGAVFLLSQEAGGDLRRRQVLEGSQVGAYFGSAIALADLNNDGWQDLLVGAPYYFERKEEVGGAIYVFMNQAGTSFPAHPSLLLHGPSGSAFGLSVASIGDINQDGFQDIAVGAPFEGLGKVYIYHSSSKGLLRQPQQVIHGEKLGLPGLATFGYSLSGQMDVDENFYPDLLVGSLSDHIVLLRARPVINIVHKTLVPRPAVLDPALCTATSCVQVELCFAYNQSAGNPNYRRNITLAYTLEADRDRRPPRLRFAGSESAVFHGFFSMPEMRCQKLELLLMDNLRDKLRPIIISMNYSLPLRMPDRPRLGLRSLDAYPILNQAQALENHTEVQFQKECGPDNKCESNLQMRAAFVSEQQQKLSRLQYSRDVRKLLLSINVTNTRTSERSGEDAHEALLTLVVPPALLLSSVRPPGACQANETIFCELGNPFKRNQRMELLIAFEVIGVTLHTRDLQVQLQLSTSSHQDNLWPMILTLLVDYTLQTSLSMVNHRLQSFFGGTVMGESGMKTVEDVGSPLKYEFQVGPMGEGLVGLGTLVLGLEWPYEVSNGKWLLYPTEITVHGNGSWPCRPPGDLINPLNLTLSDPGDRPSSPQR
T1 sequence (P26006 876-1051 partner limits assumed): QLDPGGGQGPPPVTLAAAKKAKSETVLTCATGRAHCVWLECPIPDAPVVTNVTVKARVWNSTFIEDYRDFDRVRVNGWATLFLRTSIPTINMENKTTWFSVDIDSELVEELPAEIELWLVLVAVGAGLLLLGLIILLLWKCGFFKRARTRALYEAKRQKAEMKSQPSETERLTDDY
T1 sequence (P05556 21-798 partner): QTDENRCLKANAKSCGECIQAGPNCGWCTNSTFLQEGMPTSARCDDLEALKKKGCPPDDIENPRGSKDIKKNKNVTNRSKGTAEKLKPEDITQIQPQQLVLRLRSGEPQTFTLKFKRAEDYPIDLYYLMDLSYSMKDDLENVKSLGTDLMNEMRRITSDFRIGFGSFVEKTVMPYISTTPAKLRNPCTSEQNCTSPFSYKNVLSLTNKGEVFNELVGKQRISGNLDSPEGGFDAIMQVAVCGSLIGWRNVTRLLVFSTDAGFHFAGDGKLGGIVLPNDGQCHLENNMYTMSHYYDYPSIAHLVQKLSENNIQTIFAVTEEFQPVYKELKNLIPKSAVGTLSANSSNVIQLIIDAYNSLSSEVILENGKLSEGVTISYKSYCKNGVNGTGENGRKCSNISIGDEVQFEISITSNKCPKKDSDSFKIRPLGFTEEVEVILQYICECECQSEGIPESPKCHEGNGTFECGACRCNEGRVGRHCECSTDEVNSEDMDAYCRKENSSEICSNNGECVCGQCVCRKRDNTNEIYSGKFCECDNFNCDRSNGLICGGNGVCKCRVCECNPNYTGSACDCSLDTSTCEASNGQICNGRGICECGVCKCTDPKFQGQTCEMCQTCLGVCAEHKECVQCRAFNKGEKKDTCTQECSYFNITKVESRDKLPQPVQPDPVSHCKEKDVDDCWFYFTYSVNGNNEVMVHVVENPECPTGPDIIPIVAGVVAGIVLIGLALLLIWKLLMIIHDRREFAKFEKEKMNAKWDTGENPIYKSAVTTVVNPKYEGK

## CC[C@H](C)[C@H](NC(=O)[C@H](CCSC)NC(=O)CCCC[C@@H]1SC[C@@H]2NC(=O)N[C@@H]21)C(=O)N[C@@H](Cc1ccccc1)C(=O)N[C@@H](CC(C)C)C(=O)NCC(=O)NCC(=O)N[C@@H](CCCCNC(=O)CCOCCOCCOCCOCCOCCOCCOCCOCCOCCOCCOCCOCCOCCOCCOCCOCCOCCOCCOCCOCCOCCOCCOCCOCCOCCOCCOCCOCCNC(=O)[C@H]1CSSC[C@@H](N)C(=O)N[C@H](CC(=O)O)C(=O)NCC(=O)N[C@@H](Cc2ccc(O)c([N+](=O)[O-])c2)C(=O)NCC(=O)N2C[C@H](O)C[C@H]2C(=O)N[C@@H](CC(N)=O)C(=O)N1)C(=O)N[C@@H](CCCCNC(=O)CCOCCOCCOCCOCCOCCOCCOCCOCCOCCOCCOCCOCCOCCOCCOCCOCCOCCOCCOCCOCCOCCOCCOCCOCCOCCOCCOCCOCCNC(=O)[C@H]1CSSC[C@@H](N)C(=O)N[C@H](CC(=O)O)C(=O)NCC(=O)N[C@@H](Cc2ccc(O)c([N+](=O)[O-])c2)C(=O)NCC(=O)N2C[C@H](O)C[C@H]2C(=O)N[C@@H](CC(N)=O)C(=O)N1)C(=O)O [Biotin-Y9] (I: H-[dC][dD]G[Tyr(3-NO2)]G[Hyp]N[dC][PEG28] / II: H-[dC][dD]G[Tyr(3-NO2)]G[Hyp]N[dC][PEG28] / III: Biotin-MIFLGGKK-OH; disulfide I:1-I:8, II:1-II:8; amide I:C-III:7, II:C-III:8)
MDA-MB-231
  binding to MDA-MB-231: ++
E0771
  binding to E0771: +
NIH-3T3; Table S1, 2 mM MnCl2, on ice
  binding to NIH-3T3: +
NIH-3T3; [2]
  binding to NIH-3T3: +
Primary lymphocytes; [3]
  binding to fresh lymphocytes: -
Primary lymphocytes; [4]
  binding to primary lymphocytes: −
Primary leukocytes; [5]
  binding to leukocytes: -
Primary leukocytes; [6]
  binding to primary leukocytes: −
L-929
  binding to L-929: -
GPC-16; Table S1, guinea pig, 2 mM MnCl2, on ice
  binding to GPC-16: ++
GPC-16; guinea pig, 2 mM MnCl2, 30 min on ice, streptavidin-PerCP-Cy5.5
  binding to GPC-16: ++
Primary monocytes; [3]
  binding to fresh monocytes: -
Primary monocytes; [4]
  binding to primary monocytes: −
HeLa
  binding to HeLa: ++
K562; [2]
  binding to K562: −
K562; [3]
  binding to K562: -
[1]; [3]
  binding to macrophages 7 days: +/-
[1]; [4]
  binding to primary macrophages 7 days: +/−
U-87MG
  binding to U-87MG: ++
HUVEC; [2]
  binding to HUVEC: ++
HUVEC; [3]
  binding to HUVEC: ++
PC-3 or A431 cells
  t1/2 on cell membranes: at least 15 minutes
Primary granulocytes; [3]
  binding to fresh granulocytes: -
Primary granulocytes; [4]
  binding to primary granulocytes: −
Primary macrophages 7d; [5]
  binding to macrophages 7d: -
Primary macrophages 7d; [6]
  binding to primary macrophages 7d: −
4T1
  binding to 4T1: ++
H MC-1
  binding to H MC-1: -
HT-29
  binding to HT-29: ++
PC-3; [2]
  binding to PC-3: ++
PC-3; [3]
  binding to PC-3: ++
A431; [2]
  binding to A431: ++
A431; [3]
  binding to A431: ++

## NC(=O)C[C@@H]1NC(=O)[C@@H]2C[C@@H](O)CN2C(=O)CNC(=O)[C@H](Cc2ccc(O)c([N+](=O)[O-])c2)NC(=O)CNC(=O)[C@@H](CC(=O)O)NC(=O)[C@H](N)CSSC[C@H](C(=O)O)NC1=O [B9] (H-[dC][dD]G[Tyr(3-NO2)]G[Hyp]N[dC]-OH; disulfide 1-8)
Integrin α3
  displacement of anti-CD49c-PE conjugate: competes

## CSCC[C@H](NC=O)C(=O)N[C@@H](CC(C)C)C(=O)N[C@@H](Cc1ccccc1)C(=O)NCC(=O)NCC(=O)N[C@@H](CCCCNC(=O)CCOCCOCCOCCOCCOCCOCCOCCOCCOCCOCCOCCOCCOCCOCCOCCOCCOCCOCCOCCOCCOCCOCCOCCOCCOCCOCCOCCOCCN)C(=O)N[C@@H](CCCCNC(=O)CCOCCOCCOCCOCCOCCOCCOCCOCCOCCOCCOCCOCCOCCOCCOCCOCCOCCOCCOCCOCCOCCOCCOCCOCCOCCOCCOCCOCCN)C(=O)O [F1-2PEG] (For-MLFGGK(PEG28)K(PEG28)-OH)
mice
  immune activation in mice: less potent immune activators
Human leukocytes
  loss of potency to induce chemotaxis when linked to the PEG chains: two
Guinea pigs
  immune activation in guinea pigs: less potent immune activators
Human granulocytes
  loss of potency for neutrophil activation (superoxide production) when linked to the PEG chains: two
